Assay results as given in patent US10688128B2, “Use of Z-butylidenephthalide in activating autoimmune system” (EVERFRONT BIOTECH INC., priority 2016, dated 2020).

Experiments:
[1] = tested on: PDL-1 protein; assay: Expression of PDL-1 protein by Western Blotting, RG2 cell line; format: cell-based; details: RG2 cell line (rat malignant glioma cells), various concentrations of Z-BP, 24 hours, actin internal control
Description: (§1) The RG2 cell line (rat malignant glioma cells), […] cell line (glioblastoma stem cells), Paca2 cell line (human pancreatic cancer cells), […] cell line (human non-small-cell lung cancer cells), or B16 cell line (mouse melanocytoma cells) were independently treated with various concentrations of Z-BP for 24 hours. Then, the proteins in the cells were extracted and the expressions of PDL-1 protein in the cancer cells treated with Z-BP were detected by Western Blotting. In addition, the expression of actin was detected and used as the internal control.

[2] = tested on: PDL-1 protein; assay: Expression of PDL-1 protein by Western Blotting, H1650 cell line; format: cell-based; details: H1650 cell line (human non-small-cell lung cancer cells), various concentrations of Z-BP, 24 hours, actin internal control
Description: as §1

[3] = tested on: PDL-1 protein; assay: Expression of PDL-1 protein by Western Blotting, 1×M cell line; format: cell-based; details: 1×M cell line (glioblastoma stem cells), various concentrations of Z-BP, 24 hours, actin internal control
Description: as §1

[4] = tested on: PDL-1 protein; assay: Expression of PDL-1 protein by Western Blotting, Paca2 cell line; format: cell-based; details: Paca2 cell line (human pancreatic cancer cells), various concentrations of Z-BP, 24 hours, actin internal control
Description: as §1

[5] = tested on: PDL-1 protein; assay: Expression of PDL-1 protein by Western Blotting, B16 cell line; format: cell-based; details: B16 cell line (mouse melanocytoma cells), various concentrations of Z-BP, 24 hours, actin internal control
Description: as §1

[6] = tested on: stage three or four melanoma; details: patients with stage three or four melanoma, Ipilimumab alone; cited from earlier work

Molecule	expression of PDL-1 protein [1]	expression of PDL-1 protein [2]	expression of PDL-1 protein [3]	expression of PDL-1 protein [4]	expression of PDL-1 protein [5]	overall survival rate increased [6]
CCC/C=C1\OC(=O)c2ccccc21 [Z-BP, Z-butylidenephthalide]	significantly decreased	significantly decreased	significantly decreased	significantly decreased	significantly decreased	
Ipilimumab						10.1 months
